Where a chain is given by its changes, count along the chain named.
Assays:
[1] = tested on: full-length Ang II type 1 receptor from human placenta; assay: Change in intracellular calcium ion concentration in CHOdhfr-/pHARp206 cells (Fura-2AM fluorescence); format: cell-based; conditions: final concentration 1 μM, 37° C.
Description: To each of two collagen-treated slide glasses (1×4 cm) in a 6 cm petri dish, 4 ml of an ASF104 medium (produced by Ajinomoto) containing 5% (v/v) FCS (fetal calf serum) was added, and 5×10^5 CHOdhfr- cells were seeded. After incubation at 37° C. in the presence of 5% carbon dioxide for one day, the medium was aspirated and twice washed with ASF104 medium. 5 μg of the above plasmid pHARp206 was dissolved in 50 μl of HBS buffer (8.0 g/l sodium chloride, 380 mg/l potassium chloride, 200 mg/l disodium monohydrogen phosphate, 5.9 g/l HEPES, 15 mg/l calcium chloride dihydrate, 10 mg/l magnesium chloride hexahydrate, pH 7.45). […]
After the above transformant cells CHOdhfr-/pHARp206 were twice washed with HEPES buffer (140 mM sodium chloride, 5 mM potassium chloride, 1 mM magnesium sulfate, 1 mM disodium monohydrogen phosphate, 1 mM calcium chloride, 25 mM glucose, 25 mM HEPES; pH 7.2), 4 ml of a HEPES buffer containing 4 μM Fura-2AM (Dojin Kagaku) was added, and the mixture was kept standing at 15° C. in the dark for 80 minutes. […] Fluorescence at a wavelength of 505 nm, generated upon excitation with ultraviolet rays of wavelengths of 340 nm and 380 nm, was measured.

[2] = biological target: T1, Ang II type 1 receptor of human heart origin (Homo sapiens, UniProt P30556); assay: Binding of radiolabeled Ang II (competition) using membrane fraction of control CHO/pHARt306 cells; conditions: for Competition; IC50 [-log(M)]: membrane fraction of CHO/pHARt306 (human heart origin), [125I]-Ang II, 22° C., 45 minutes
T1 sequence (P30556 1-359): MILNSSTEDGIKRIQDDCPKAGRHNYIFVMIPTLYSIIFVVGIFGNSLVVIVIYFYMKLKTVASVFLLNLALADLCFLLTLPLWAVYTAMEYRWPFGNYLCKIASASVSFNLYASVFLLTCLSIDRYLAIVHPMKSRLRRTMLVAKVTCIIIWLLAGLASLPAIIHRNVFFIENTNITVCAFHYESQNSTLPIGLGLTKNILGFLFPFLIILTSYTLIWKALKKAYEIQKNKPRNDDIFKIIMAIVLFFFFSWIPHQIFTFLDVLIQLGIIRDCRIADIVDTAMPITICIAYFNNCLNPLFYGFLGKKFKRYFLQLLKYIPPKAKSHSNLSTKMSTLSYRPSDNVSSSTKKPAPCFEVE
Description: All measurements were performed in a series of three runs. […] An aliquot of membrane fraction equivalent to 10 μg of protein was suspended in a 0.1% (w/v) BSA solution containing 25 mM Tris (pH 7.6) and 5 mM magnesium chloride, to yield a 194 μl suspension. […] After 45 minutes of reaction, the reaction mixture was aspirated onto a glass filter, which was washed with 4 ml of ice-cooled Tris (pH 7.6), and the residual radioactivity on the glass filter was measured using a γ-ray counter. The final sample concentration was varied over a range of from 1 pM to 10 μM. In the measurement, the amount of non-specific binding was defined as 0%, and the maximum mount of binding in the absence of sample defined as 100%. With this regard, the -log (M) value of the sample concentration (M) resulting in 50% binding was defined as IC50 value. A membrane fraction was also extracted from control CHO/pHARt306 cells in the same manner as above, and assayed using the same assay system.

[3] = biological target: T2, Ang II type 1 receptor of human placental origin (Homo sapiens, UniProt P30556); assay: Binding of radiolabeled Ang II (competition) using membrane fraction of CHO/pHARp306 cells; conditions: [125I]-Ang II, 22° C., 45 minutes
T2 sequence (P30556 1-359 Q187R/F204S/L205C/K232N/K240R/L268Q/C289W/R311K/Y312D/F313I): T1 sequence (P30556 1-359) with Q187R, F204S, L205C, K232N, K240R, L268Q, C289W, R311K, Y312D, F313I
Description: All measurements were performed in a series of three runs. […] An aliquot of membrane fraction equivalent to 10 μg of protein was suspended in a 0.1% (w/v) BSA solution containing 25 mM Tris (pH 7.6) and 5 mM magnesium chloride, to yield a 194 μl suspension. […] After 45 minutes of reaction, the reaction mixture was aspirated onto a glass filter, which was washed with 4 ml of ice-cooled Tris (pH 7.6), and the residual radioactivity on the glass filter was measured using a γ-ray counter. The final sample concentration was varied over a range of from 1 pM to 10 μM. In the measurement, the amount of non-specific binding was defined as 0%, and the maximum mount of binding in the absence of sample defined as 100%. With this regard, the -log (M) value of the sample concentration (M) resulting in 50% binding was defined as IC50 value.

[4] = tested on: Ang II receptor; conditions: cited from earlier work
[5] = biological target: T3, Ang II type 1 receptor from human placenta (Homo sapiens, UniProt P30556); assay: Radio-labeled Ang II binding activity in animal cells (COS7/pHARp306) expressing full-length Ang II type 1 receptor gene from human placenta; conditions: 10 μM agonist or antagonist added; 100 pM [125I]-Ang II; room temperature, 60 minutes; control (none) 84,148 cpm
T3 sequence (P30556 1-359 Q187R/F204S/L205C/K232N/K240R/L268Q/C289W/R311K/Y312D/F313I): T1 sequence (P30556 1-359) with Q187R, F204S, L205C, K232N, K240R, L268Q, C289W, R311K, Y312D, F313I
Description: To each well of a 6 well petri dish, 2 ml of a DMEM medium (produced by DIFCO) containing 5% (v/v) FCS was added, and 5×10^4 COS7 cells were seeded. After incubation at 37° C. in the presence of 5% carbon dioxide for two days, the medium was aspirated and twice washed with DMEM medium.

[6] = biological target: T4, full-length Ang II type 1 receptor of human placental origin (Homo sapiens, UniProt P30556); assay: Changes in intracellular inositol phosphate (IPs) concentration in CHO/pHARp306 cells; format: cell-based
T4 sequence (P30556 1-359 Q187R/F204S/L205C/K232N/K240R/L268Q/C289W/R311K/Y312D/F313I): T1 sequence (P30556 1-359) with Q187R, F204S, L205C, K232N, K240R, L268Q, C289W, R311K, Y312D, F313I
Description: (§1) To each well of a 12 well petri dish, a DMEM medium containing 10% (v/v) dialyzed-FCS and 35 μg/ml L-proline was added, and 1×10^5 CHO/pHAR306 cells were inoculated. One day later, the medium was replaced with the same medium but containing 1 μCi/ml [^3 H]-labeled inositol (Amersham), and cultivation was continued for 24 hours. The petri dish was twice washed with a PBS buffer (FLOW Laboratories) containing 0.2% (w/v) BSA and then kept standing for 30 minutes, after which it was kept standing at 37° C. for 30 minutes in the presence of the same buffer but containing 10 mM lithium chloride. […] When the reaction time exceeded 30 seconds, the reaction mixture was removed using an aspirator, after which 1 ml of a 5% (w/v) trichloroacetic acid solution was added to each well to stop the reaction. When the reaction time was 5 to 30 seconds, 1 ml of a 10% (w/v) trichloroacetic acid solution was injected directly to each well to stop the reaction. The [^3 H]-labeled inositol phosphate (IPs) was separated using ion exchange column AG 1-X8 (Bio-Rad Laboratories). […] The radioactivity of each fraction was determined using a liquid scintillation counter.

[7] = biological target: T5, full-length Ang II type 1 receptor of human heart origin (Homo sapiens, UniProt P30556); conditions: CHO/pHARt306
T5 sequence (P30556 1-359): T1 sequence (P30556 1-359)
Description: (§2) To each well of a 24 well petri dish, a DMEM medium containing 10% (v/v) dialyzed FCS and 35 μg/ml L-proline was added, and 1×10^5 CHO/pHAR306 cells were inoculated. […] After the reaction mixture was removed using an aspirator, 500 μl of a 5% (w/v) trichloroacetic acid solution was added to each well to stop the reaction. The amount of cAMP was measured by EIA (cAMP enzyme immunoassay system, produced by Amersham).

[8] = biological target: T5, full-length Ang II type 1 receptor of human heart origin; conditions: CHO/pHARt306; remark: listed apart in the source
Description: as §1

[9] = biological target: T4, full-length Ang II type 1 receptor of human placental origin; assay: Ang II binding activity of isolated CHO cell clone (method of Example 9); conditions: CHO/pHARp306 clone
Description: After the mixture was thrice washed with TSMB buffer, cells were solubilized with 1N sodium hydroxide (1 ml), and their radioactivity was determined using a γ-ray counter.

[10] = biological target: T4, full-length Ang II type 1 receptor of human placental origin; conditions: 10 μM forskolin in place of Ang II; CHO/pHARp306
Description: as §2

[11] = tested on: reactions of KCl, norepinephrine, isoproterenol, vasopressin, bradykinin, acetylcholine or 5-HT; conditions: at suppressive doses for a high concentration (10 μM) of Ang II; cited from earlier work
[12] = tested on: type 1 receptors; conditions: cited from earlier work
[13] = tested on: ACE; conditions: at suppressive doses for a high concentration (10 μM) of Ang II; cited from earlier work
[14] = tested on: type 2 receptors; conditions: cited from earlier work

## endothelin 1: endothelin 1 (CSCSSLMDKECVYFCHLDIIW)
[1]
  change in fluorescence (intracellular Ca ion concentration): no change occurred in fluorescence

## CCOc1nc2cccc(C(=O)O)c2n1Cc1ccc(-c2ccccc2-c2nn[nH]n2)cc1 [CV-11974]
[2]; read-out: Competition, IC50 [-log(M)] (converted)
  IC50: 3.31e-10 M
[3]
  Competition; IC50 [-log(M)], column A (second; B in text): 9.61 -log(M)

## CCCCc1nc(Cl)c(CC(=O)[O-])n1Cc1ccccc1[N+](=O)[O-].[Na+] [CV2961]
[4]
  Ang II receptor antagonist activity: found to possess Ang II receptor antagonist activity

## Ang III: amino acid number of Ang III is lower by 1 than that of Ang II; used as agonist
[2]
  Competition; IC50 [-log(M)]: 7.57 -log(M)
[5]
  Radioactivity (bound [125I]-labeled Ang II): 670 cpm
[3]
  Competition; IC50 [-log(M)], column A (second; B in text): 9.07 -log(M)

## Ang II
[6]; 20 minutes after stimulation, final Ang II 1 pM to 10 μM, FIG. 7B
  total IPs production, dose response: IPs production was suppressed in response to stimulation with high concentrations of Ang II
[6]; Ang II 100 nM, 37° C., FIG. 6
  IPs production, time course: a transient rise in IP3 concentration occurred, followed by formation of IP2 and IP1 in this order
[7]; 1 pM to 10 μM Ang II plus 10 μM forskolin, 10 minutes, FIG. 8A
  suppression of forskolin-stimulated cAMP production: cAMP production suppression depending on Ang II concentration
[5]
  Radioactivity (bound [125I]-labeled Ang II): 676 cpm
[8]; 20 minutes after stimulation, final Ang II 1 pM to 10 μM, FIG. 7A
  total IPs production, dose response: IPs production was not suppressed even in the presence of high concentrations of Ang II
[8]; Ang II 100 nM, 37° C.
  IPs production, time course: the same IPs production pattern as with CHO/pHARp306 cells
[9]
  affinity to Ang II: high affinity

## C=C[C@@]1(C)CC(=O)[C@]2(O)[C@@]3(C)[C@@H](O)CCC(C)(C)[C@@H]3[C@H](O)[C@H](OC(C)=O)[C@@]2(C)O1 [forskolin]
[7]; 10 μM forskolin in place of Ang II
  formation of cAMP: about 80 pmol/well
[10]
  formation of cAMP: about 80 pmol/well

## CCCCc1nc(Cl)c(CO)n1Cc1ccc(-c2ccccc2-c2nn[nH]n2)cc1 [DuP753]
[4]; vascular wall, adrenal cortex and other organs
  specificity of action on Ang II receptors: act specifically on Ang II receptors in the vascular wall, adrenal cortex and other organs to suppress Ang II action only
[11]
  effect on reactions of KCl, norepinephrine, isoproterenol, vasopressin, bradykinin, acetylcholine or 5-HT: no effect
[12]
  antagonism of type 1 receptors: antagonistic
[13]
  effect on ACE action: no effect

## Cc1cc(Cn2cnc3c2CC(C(=O)O)N(C(=O)C(c2ccccc2)c2ccccc2)C3)ccc1N (stereo not drawn) [PD123177]
[2]
  Competition; IC50 [-log(M)]: < 6.00 -log(M)
[5]
  Radioactivity (bound [125I]-labeled Ang II): 69,980 cpm
[14]
  antagonism of type 2 receptors: antagonistic
[3]
  Competition; IC50 [-log(M)], column A (second; B in text): 5.49 -log(M)

From patent US5427922A (Takeda Chemical Industries, Ltd., priority 1992, dated 1995)
